Among the test systems are A549; CAKI-1; HCC 2998; HL-60; K562; KM-20L2; KM12; M19-MEL; NCI-H522; NCI/ADR-RES; SK-MEL-2; T47D; COLO 205; IGROV-1; RPMI-8226; SR; XF498; 786-0; MDA-N; DMS-114.
What all share (assay): NCI tumour cell line growth inhibition, 48 h

Here are results for 14 compounds from ChEMBL document CHEMBL1201862, “PubChem BioAssay data set” (2004).

Structures are written as SMILES.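 Following 48 hours of exposure in 96-well plates, responses at five concentrations were used to interpolate endpoints linearly. The concentration for 50% growth inhibition is given as GI50.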 Calls of active or inactive are those of the source. Rule as the data show it: active = GI50 up to about 1.1 µM and inactive = higher.

`CC1CC[P+](c2ccccc2)(c2ccccc2)c2c1ccc1ccccc21` (configuration not stated): the GI50 is 4.83 µM (inactive) with A549; 6.75 µM (inactive) in the assay with CAKI-1; 9.48 µM (inactive) with HCC 2998; 1.28 µM (inactive) with HL-60; 0.589 µM (active) in the assay with K562; 2.5 µM (inactive) with KM-20L2. Further, the GI50 was 1.59 µM (inactive) with KM12; 1.69 µM (inactive) with M19-MEL; 0.946 µM (active) in the assay with NCI-H522; > 100 µM (inactive) with NCI/ADR-RES; 1.63 µM (inactive) with SK-MEL-2; 0.883 µM (active) in the assay on T47D.

As to `CCCCCCCCCCCCCC(=O)OC1C(O)C(CO)OC(OC)C1NC(=O)N(CCCl)N=O` (configuration not stated), the GI50 in the assay with A549 is 83.9 µM (inactive); in the assay on CAKI-1, > 100 µM (inactive); in the assay on COLO 205, > 100 µM (inactive); in the assay with HCC 2998, > 100 µM (inactive); with IGROV-1, > 100 µM (inactive); with K562 it was > 100 µM (inactive). In addition, the GI50 with KM-20L2 was > 100 µM (inactive); in the assay with KM12 it was > 100 µM (inactive); in the assay on M19-MEL, > 100 µM (inactive); in the assay on NCI-H522 it was 72.9 µM (inactive); with RPMI-8226, 30.8 µM (inactive); in the assay with SK-MEL-2, > 100 µM (inactive). The GI50 in the assay with SR was 23.2 µM (inactive); in the assay on XF498, 48.9 µM (inactive).

For the compound `Cc1cn([C@@H]2C[C@](C)(CO)N(C)O2)c(=O)[nH]c1=O`, the GI50 with 786-0, in the assay on A549, in the assay on CAKI-1, with COLO 205, in the assay with HCC 2998 and in the assay with HL-60 was > 100 µM (inactive) each time. Moreover, the GI50 in the assay with IGROV-1, with K562, in the assay with KM12, in the assay on MDA-N, in the assay on NCI-H522 and in the assay on NCI/ADR-RES was > 100 µM (inactive) each time. In addition, the GI50 in the assay with RPMI-8226, in the assay with SK-MEL-2 and with SR was > 100 µM (inactive) in each case.

With `COc1cc(/C=C2\CCC(C)/C(=C\c3cc(OC)c(OC)c(OC)c3)C2=O)cc(OC)c1OC` (configuration not stated), the GI50 in the assay on 786-0 was 3.75 µM (inactive); in the assay on A549, 2.79 µM (inactive); with CAKI-1, 2.99 µM (inactive); in the assay on COLO 205 it was 2.48 µM (inactive); with IGROV-1, 2.38 µM (inactive); with K562 it was 2.69 µM (inactive). Besides, the GI50 with KM12 was 2.61 µM (inactive); in the assay on MDA-N, 2.96 µM (inactive); in the assay on RPMI-8226 it was 0.286 µM (active); in the assay on SK-MEL-2 it was 1.67 µM (inactive); in the assay on T47D, 8.95 µM (inactive).

With `CNC(=S)Nc1sc2c(c1C#N)CCCC2`, the GI50 in the assay on 786-0, in the assay with CAKI-1, in the assay on COLO 205, in the assay on HCC 2998, in the assay on HL-60 and in the assay with IGROV-1 was > 75 µM (inactive) each time. Besides, the GI50 in the assay with K562, in the assay with KM12, with MDA-N, in the assay with NCI-H522, with NCI/ADR-RES and in the assay on RPMI-8226 was > 75 µM (inactive) throughout. Besides, the GI50 in the assay with SK-MEL-2, with SR and in the assay on T47D was > 75 µM (inactive) each time.

On to `CCCCN(CCCC)CC(=O)c1ccc2cc(Cl)c3ccccc3c2c1`, for which the GI50 in the assay on 786-0 was 57.4 µM (inactive); in the assay with A549 it was 27.2 µM (inactive); in the assay with CAKI-1, 29.5 µM (inactive); with COLO 205 it was 14.9 µM (inactive); in the assay on HCC 2998, 32.1 µM (inactive); in the assay on HL-60, 24.1 µM (inactive). For the same compound, the GI50 in the assay on IGROV-1 was 20.9 µM (inactive); in the assay on K562, 24.9 µM (inactive); in the assay with KM12 it was 32 µM (inactive); in the assay on NCI-H522, 16.4 µM (inactive); in the assay on NCI/ADR-RES it was 99.3 µM (inactive); with RPMI-8226 it was 7.98 µM (inactive). Besides, the GI50 with SK-MEL-2 is 25.5 µM (inactive); in the assay with SR, 16.1 µM (inactive); in the assay with T47D, 17.7 µM (inactive).

Turning to `CN1CN(c2ccccc2)C2(CCNCC2)C1=O`, the GI50 with 786-0, with A549, in the assay with CAKI-1, with COLO 205, in the assay with HCC 2998 and with HL-60 was > 100 µM (inactive) in each case. The GI50 with IGROV-1, with K562, in the assay with KM12, in the assay with MDA-N, in the assay with NCI-H522 and in the assay with NCI/ADR-RES was > 100 µM (inactive) in each case. The GI50 in the assay on RPMI-8226, in the assay on SK-MEL-2, with SR and in the assay with T47D was > 100 µM (inactive) each time.

In the case of `COc1ccccc1/C=C(\C#N)c1ccccc1`, the GI50 in the assay on 786-0 is 20 µM (inactive); in the assay with A549 it was 37 µM (inactive); in the assay on CAKI-1, 16.6 µM (inactive); in the assay with COLO 205 it was 15.6 µM (inactive); in the assay on DMS-114 it was 16.5 µM (inactive); with HCC 2998, 34.4 µM (inactive). Besides, the GI50 is 43.3 µM (inactive) with IGROV-1; 11.4 µM (inactive) in the assay with K562; 23.6 µM (inactive) in the assay with KM-20L2; 18.5 µM (inactive) in the assay with KM12; 32.6 µM (inactive) with M19-MEL; 16.6 µM (inactive) in the assay on NCI-H522. Besides, the GI50 was 20.8 µM (inactive) in the assay with RPMI-8226, 27.2 µM (inactive) with SK-MEL-2 and 15.6 µM (inactive) with SR.

With `C1CSCCSCSCCS1`, the GI50 with A549, with CAKI-1, with COLO 205, with HCC 2998, in the assay with IGROV-1 and in the assay on KM12 was > 100 µM (inactive) throughout. The GI50 in the assay on MDA-N, in the assay with NCI-H522, in the assay with NCI/ADR-RES, in the assay with SK-MEL-2 and with T47D was > 100 µM (inactive) in each case.

For the compound `COc1cc(C2c3c(ccc4ccccc34)C(=O)C3CCC(=O)N32)cc(OC)c1OC` (configuration not stated), the GI50 in the assay on 786-0, with A549, in the assay with CAKI-1, in the assay on COLO 205, in the assay with HL-60 and in the assay with IGROV-1 was > 50 µM (inactive) in each case. Besides, the GI50 in the assay with K562 was > 50 µM (inactive); with KM12, > 50 µM (inactive); in the assay with MDA-N it was > 50 µM (inactive); in the assay on NCI-H522, 25.5 µM (inactive); in the assay on NCI/ADR-RES it was > 50 µM (inactive); in the assay on RPMI-8226, 46.8 µM (inactive). For the same compound, the values for the GI50 in the assay on SK-MEL-2, with SR and with T47D were > 50 µM (inactive), 48.4 µM (inactive) and > 50 µM (inactive), respectively.

For the compound `Cn1c(=O)c(-c2ccccc2)c(N=[N+]=[N-])c2ccccc21`, the GI50 is 67.8 µM (inactive) with A549; 29.4 µM (inactive) with CAKI-1; 44 µM (inactive) in the assay on COLO 205; 22.4 µM (inactive) in the assay on HCC 2998; > 100 µM (inactive) in the assay on IGROV-1; 34.8 µM (inactive) in the assay with K562. Moreover, the GI50 in the assay on KM12 was 37.8 µM (inactive); with MDA-N, 72.8 µM (inactive); in the assay with NCI-H522, 26 µM (inactive); in the assay on NCI/ADR-RES it was 28.4 µM (inactive); with SR, 25.3 µM (inactive); with T47D, 19.8 µM (inactive).

Take `C[C@@H]1CC[C@H]2[C@H]1[C@H]1[C@@H](CC[C@]2(C)N=C=S)C1(C)C`: the GI50 is 37.8 µM (inactive) in the assay with CAKI-1; 18.5 µM (inactive) in the assay on COLO 205; 16.1 µM (inactive) with HCC 2998; 19.1 µM (inactive) in the assay with HL-60; 45 µM (inactive) with IGROV-1; 16.2 µM (inactive) in the assay on K562. The GI50 with KM12 was 17 µM (inactive); in the assay with MDA-N, 1.96 µM (inactive); in the assay on NCI/ADR-RES it was 21.7 µM (inactive); with RPMI-8226, 17.2 µM (inactive); in the assay with SK-MEL-2 it was 22.8 µM (inactive); in the assay with SR it was 22.1 µM (inactive). In addition, the GI50 in the assay on T47D was 45.5 µM (inactive).

`CC(O)C(CO)NC(=O)C1CSSCC(NC(=O)C(N)Cc2ccccc2)C(=O)NC(Cc2ccccc2)C(=O)NC(Cc2c[nH]c3ccccc23)C(=O)NC(CCCCN)C(=O)NC(C(C)O)C(=O)N1` (configuration not stated): the GI50 in the assay on 786-0, in the assay on A549, with CAKI-1, in the assay with COLO 205, in the assay with HL-60 and with IGROV-1 was > 100 µM (inactive) throughout. For the same compound, the GI50 in the assay with K562, in the assay with KM12, in the assay with MDA-N, in the assay with NCI-H522, with NCI/ADR-RES and with RPMI-8226 was > 100 µM (inactive) each time. For the same compound, the GI50 in the assay with SR and with T47D was > 100 µM (inactive) each time.

Regarding `SC1=Nc2ccccc2-c2nc(-c3ccccc3)cc(-c3ccc(Br)cc3)c2C1`, the GI50 was 2.32 µM (inactive) with A549; 1.5 µM (inactive) in the assay with CAKI-1; 2.66 µM (inactive) with COLO 205; 3.17 µM (inactive) with HCC 2998; 18.4 µM (inactive) in the assay with HL-60; 1.22 µM (inactive) in the assay with IGROV-1. In addition, the GI50 in the assay with K562 was 2.9 µM (inactive); with KM12, 12 µM (inactive); in the assay with MDA-N, 2.51 µM (inactive); with NCI-H522, 1.68 µM (inactive); in the assay on NCI/ADR-RES, 1.56 µM (inactive); in the assay with RPMI-8226, 15.8 µM (inactive). For the same compound, the values for the GI50 in the assay on SK-MEL-2 and with T47D were 6.47 µM (inactive) and 1.48 µM (inactive), respectively.
